Data as given in US7057048B2, “Androgen receptor antagonists” (Warner Lambert Company LLC, priority 2003, dated 2006).

Target: T1, androgen receptor (Homo sapiens, UniProt P10275)
T1 sequence (P10275 1-920 Q868H): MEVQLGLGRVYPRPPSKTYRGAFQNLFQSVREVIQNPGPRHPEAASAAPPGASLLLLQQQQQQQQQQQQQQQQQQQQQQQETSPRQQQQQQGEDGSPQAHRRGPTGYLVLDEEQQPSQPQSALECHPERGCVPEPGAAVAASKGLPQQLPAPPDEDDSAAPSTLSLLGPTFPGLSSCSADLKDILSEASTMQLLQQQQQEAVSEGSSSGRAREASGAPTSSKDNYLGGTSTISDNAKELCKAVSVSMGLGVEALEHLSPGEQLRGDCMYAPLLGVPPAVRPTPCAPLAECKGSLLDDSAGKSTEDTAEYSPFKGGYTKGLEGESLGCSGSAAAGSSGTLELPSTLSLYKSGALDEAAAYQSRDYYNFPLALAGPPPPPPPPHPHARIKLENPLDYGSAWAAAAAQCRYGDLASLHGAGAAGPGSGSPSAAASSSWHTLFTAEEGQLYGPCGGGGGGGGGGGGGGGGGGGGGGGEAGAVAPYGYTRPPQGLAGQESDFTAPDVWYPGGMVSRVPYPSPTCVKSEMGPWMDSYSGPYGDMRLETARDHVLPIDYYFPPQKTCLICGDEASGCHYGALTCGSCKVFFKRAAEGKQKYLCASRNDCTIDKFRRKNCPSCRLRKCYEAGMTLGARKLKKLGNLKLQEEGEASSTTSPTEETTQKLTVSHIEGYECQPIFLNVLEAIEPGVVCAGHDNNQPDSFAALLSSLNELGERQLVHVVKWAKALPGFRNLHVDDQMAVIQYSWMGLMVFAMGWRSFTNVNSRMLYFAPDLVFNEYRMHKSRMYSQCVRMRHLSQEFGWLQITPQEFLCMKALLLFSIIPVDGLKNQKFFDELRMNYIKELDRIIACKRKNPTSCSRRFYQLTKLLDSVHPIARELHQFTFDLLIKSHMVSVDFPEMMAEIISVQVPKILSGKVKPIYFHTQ
Assay: AR Antagonist Cell Assay (MMTV-luciferase reporter, DHT-stimulated)
Type: cell-based
Conditions: MDA-MB453-MMTV clone 54-19 cells, inhibition of induction by 100 pM DHT, 17 hr
Experimental: The compounds ability to antagonize the effects of androgen on the androgen receptor were determined in the protocol described immediately below.
Experimental Procedure for AR Antagonist Cell Assay
Cell line: MDA-MB453-MMTV clone 54-19. This cell line is a stable transfected cell line with MDA-MB453 cell background (human breast tumor cell expressing high level of androgen receptor). A MMTV minimal promoter containing ARE was first cloned in front of a firefly luciferase reporter gene. Then the cascade was cloned into transfection vector pUV120puro. Electroporation method was used for transfecting MDA-MB-453 cell. Puromycin resistant stable cell line was selected.
Cell Culture Media and Reagents:
Culture medium: DMEM (high glucose, Gibco cat #: 11960-044), 10% FBS, and 1% L-glutamine
Plating medium: DMEM (phenol red free), 10% charcoal treated HyClone serum, 1% L-glutamine
Assay medium: DMEM (phenol red free), 1% charcoal treated HyClone serum, 1% L-glutamine, and 1% penicillin/streptomycin
3×luciferase buffer: 2% beta-mercaptoethanol, 0.6% ATP, 0.0135% luciferine in cell lysis buffer
• 1. Cells are maintained in culture medium, splitting cells when they reach 80–90% confluence • 2. To test compounds, 10,000 cells/well are plated to opaque 96 cell culture plate in 100 ul/well plating medium, culture for overnight at 37° C. in cell culture incubator • 3. Carefully remove plating medium, then add 80 ul/well of pre-warmed assay medium, add 10 ul/well testing compound (final concentration at 10 uM or 1 uM), incubate at 37° C. for 30 minutes • 4. Add 10 ul/well freshly prepared DHT (final concentration at 100 pM) to each well, incubate at 37° C. for 17 hr (overnight) • 5. Add 50 ul/well 3×luciferase buffer, incubate at room temperature for 5 minutes, then count on Luminometer
The fold induction over background by 100 pM DHT in the absence of testing compounds is standardized as 100% and experimental result is expressed as percentage of inhibition by testing compounds.

Going from O=c1cc(C(F)(F)F)c2cc(Cc3ccc(S(=O)(=O)N4CCN(CCCO)CC4)cc3)ccc2o1 [Example 31, 6-{4-[4-(3-Hydroxypropyl)piperazine-1-sulfonyl]benzyl}-4-trifluoromethylchromen-2-one] to O=c1cc(C(F)(F)F)c2cc(Cc3ccc(S(=O)(=O)N4CCCC4)cc3)ccc2[nH]1 [Example 20, 6-[4-(Pyrrolidine-1-sulfonyl)benzyl]-4-trifluoromethyl-1H-quinolin-2-one], the IC50 rises from 8.2 µM to greater than 10 µM.

O=c1cc(C(F)(F)F)c2cc(Cc3ccc(S(=O)(=O)N4CCCCCC4)cc3)ccc2[nH]1 [Example 21, 6-[4-(Azepane-1-sulfonyl)benzyl]-4-trifluoromethyl-1H-quinolin-2-one] and CC1CN(S(=O)(=O)c2ccc(Cc3ccc4[nH]c(=O)cc(C(F)(F)F)c4c3)cc2)CC(C)O1 (centres unmarked) [Example 24, 6-[4-(2,6-Dimethylmorpholine-4-sulfonyl)benzyl]-4-trifluoromethyl-1H-quinolin-2-one] are within 1.5-fold of each other in IC50: 9.2 µM for the first, 6.5 µM for the second.

In the case of O=c1cc(C(F)(F)F)c2cc(Cc3ccc(S(=O)(=O)N4CCCc5ccccc54)cc3)ccc2o1 [Example 65, 6-[4-(3,4-Dihydro-2H-sulfonyl)benzyl]-4-trifluoromethylchromen-2-one], the IC50 is reported as 5.9 µM.
